Laboratory results taken from ChEMBL document CHEMBL3508693 (2016).

Experiments:
[1] = Excretion (0-96h) of 14C-radioactivity in urine following single oral dose of 300 mg [14C]SPP100 studied in healthy men; assay type: ADME, organism-based; settings: human, in vivo, at 300 mg
[2] = Excretion (0-168h) of 14C-radioactivity in urine following single oral dose of 300 mg [14C]SPP100 studied in healthy men; assay type: ADME, organism-based; settings: human, in vivo, at 300 mg
[3] = Excretion (0-24h) of radioactivity in urine following intravenous administration of [14C] aliskiren hemifumarate at 1 mg.Kg-1 level in marmoset; assay type: ADME, organism-based, Callithrix jacchus; settings: in vivo
[4] = Excretion (48h) of radioactivity in urine following oral administration of [14C] aliskiren hemifumarate at 100 mg.Kg-1 level in rat; assay type: ADME, organism-based, Lister-Hooded; settings: in vivo
[5] = AUC of [14C] aliskiren hemifumarate following single oral dose of [14C] aliskiren hemifumarate at 500 mg.Kg-1 level in mouse; assay type: ADME, organism-based, TgRasH2, Plasma; settings: in vivo
[6] = Tmax of [14C] aliskiren hemifumarate following single oral dose of [14C] aliskiren hemifumarate at 500 mg.Kg-1 level in mouse; assay type: ADME, organism-based, TgRasH2, Plasma; settings: in vivo
[7] = Mean excretion of radioactivity (0-24h) in urine and faeces following single oral dose of 500 mg.Kg-1 [14C] aliskiren hemifumarate in mouse; assay type: ADME, organism-based, TgRasH2, Urine/Feces; settings: in vivo
[8] = Excretion of radioactivity (24-48h) in faeces following single oral dose of 500 mg.Kg-1 [14C] aliskiren hemifumarate in mouse; assay type: ADME, organism-based, TgRasH2, Feces; settings: in vivo
[9] = Excretion of radioactivity (48-72h) in faeces following single oral dose of 500 mg.Kg-1 [14C] aliskiren hemifumarate in mouse; assay type: ADME, organism-based, TgRasH2, Feces; settings: in vivo
[10] = Excretion of radioactivity (0-72h) in faeces following single intravenous dose of 10 mg.Kg-1 [14C] aliskiren hemifumarate in mouse; assay type: ADME, organism-based, TgRasH2, Feces; settings: in vivo
[11] = Mean excretion of radioactivity (48-72h) in urine and faeces following single intravenous dose of 10 mg.Kg-1 [14C] aliskiren hemifumarate in rat; assay type: ADME, organism-based, Albino HAN:WIST, Urine/Feces; settings: in vivo
[12] = Tmax of radioactivity following repeated oral administration of [14C] aliskiren hemifumarate at 100 mg.Kg-1 level studied after 2h of dosing on day 1 in rat; assay type: ADME, organism-based, Albino HAN:WIST; settings: in vivo
[13] = Cmax of radioactivity following repeated oral administration of [14C] aliskiren hemifumarate at 100 mg.Kg-1 level studied after 2h of dosing on day 1 in rat; assay type: ADME, organism-based, Albino HAN:WIST; settings: in vivo, read-out: Cmax(1)
[14] = Concentration of radioactivity in the brown fat following repeated oral administration of [14C] aliskiren hemifumarate at 100 mg.Kg-1 level studied at 2h after 10th dose in rat; assay type: ADME, organism-based, Albino HAN:WIST, Brown adipose tissue; settings: in vivo
CYP1A2 = molecular target: T1, CYP1A2 (Homo sapiens, UniProt P05177); assay: Inhibition of CYP1A2 in human liver microsomes from 10 healthy donors at 200 uM aliskiren (SPP100); assay type: ADME, Microsome; design: conc 200 uM; settings: probe phenacetin (O-deethylation)
T1 sequence (P05177 whole entry): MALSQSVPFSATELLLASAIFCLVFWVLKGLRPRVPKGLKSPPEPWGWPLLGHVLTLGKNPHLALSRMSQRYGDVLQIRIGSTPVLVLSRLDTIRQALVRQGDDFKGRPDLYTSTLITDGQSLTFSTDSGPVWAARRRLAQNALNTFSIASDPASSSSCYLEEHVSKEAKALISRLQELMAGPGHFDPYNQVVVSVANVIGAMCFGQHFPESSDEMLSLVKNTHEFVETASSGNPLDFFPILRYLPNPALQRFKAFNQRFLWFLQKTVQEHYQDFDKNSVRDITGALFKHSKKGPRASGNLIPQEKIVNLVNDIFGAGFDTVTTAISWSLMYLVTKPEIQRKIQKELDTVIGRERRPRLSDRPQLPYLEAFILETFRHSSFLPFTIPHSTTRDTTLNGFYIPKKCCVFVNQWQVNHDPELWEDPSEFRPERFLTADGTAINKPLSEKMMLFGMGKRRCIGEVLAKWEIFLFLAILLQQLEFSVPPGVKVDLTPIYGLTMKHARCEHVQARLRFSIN

CYP2C9 = CYP2C9 (Homo sapiens, UniProt P11712); assay: Inhibition of CYP2C9 in human liver microsomes from 10 healthy donors at 200 uM aliskiren (SPP100); assay type: ADME, Microsome; design: conc 200 uM; settings: probe S-warfarin (7-hydroxylation)
CYP2C9, sequence (P11712 whole entry): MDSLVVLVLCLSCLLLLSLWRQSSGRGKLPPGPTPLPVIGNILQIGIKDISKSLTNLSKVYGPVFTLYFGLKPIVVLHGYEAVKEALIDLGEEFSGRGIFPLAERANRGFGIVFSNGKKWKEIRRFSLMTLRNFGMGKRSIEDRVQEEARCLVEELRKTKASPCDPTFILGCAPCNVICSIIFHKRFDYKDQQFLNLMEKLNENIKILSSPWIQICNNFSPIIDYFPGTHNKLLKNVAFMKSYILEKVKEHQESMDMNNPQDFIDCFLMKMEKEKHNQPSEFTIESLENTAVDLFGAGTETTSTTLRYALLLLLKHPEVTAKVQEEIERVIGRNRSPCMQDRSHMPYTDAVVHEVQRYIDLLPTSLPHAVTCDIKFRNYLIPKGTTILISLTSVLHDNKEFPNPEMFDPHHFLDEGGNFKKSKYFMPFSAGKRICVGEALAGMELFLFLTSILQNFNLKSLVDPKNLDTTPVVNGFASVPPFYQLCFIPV

[15] = Cmax of aliskiren hemifumarate following 8 day once-daily dosing of SPP100B oral solution at 640 mg level studied on day 8 in men; assay type: ADME, organism-based; settings: male, human, plasma
[16] = Tmax of aliskiren hemifumarate following 8 day once-daily dosing of SPP100B oral solution at 160 mg level studied on day 8 in men; assay type: ADME, organism-based; settings: male, human, plasma
[17] = Cmax (0-96h) of unlabeled aliskiren hemifumarate following intravenous administration of aliskiren hemifumarate at 10 mg.Kg-1 level in rat; assay type: ADME, organism-based; settings: Albino HAN:WIST, plasma
[18] = Effect of 2 week oral dosing of aliskiren hemifumarate at 100 mg.Kg-1 level on plasma magnesium level in male Callithrix jacchus; assay type: toxicity, organism-based; settings: marmoset, 336 h
[19] = Cmax of aliskiren hemifumarate following 2 week oral dosing of aliskiren hemifumarate at 10 mg.Kg-1 level studied on day 1 in female Callithrix jacchus; assay type: ADME, organism-based; settings: marmoset, plasma
[20] = AUC/dose (0-96h) of unlabeled aliskiren hemifumarate following oral administration of aliskiren hemifumarate at 100 mg.Kg-1 level in rat; assay type: ADME, organism-based, Albino HAN:WIST, Plasma; settings: in vivo
[21] = Effect of 4 week oral dietary dosing of aliskiren hemifumarate at 500 mg.Kg-1 level on spermatogenesis in male mouse; assay type: toxicity, organism-based, CB6F1-TGrasH2, Testis; settings: in vivo, 672 h
[22] = Effect of 4 week oral dietary dosing of aliskiren hemifumarate at 1500 mg.Kg-1 level on spermatogenesis in male mouse; assay type: toxicity, organism-based, CB6F1-TGrasH2, Testis; settings: in vivo, 672 h
[23] = Apparent terminal elimination half-life (0-96h) of unlabeled aliskiren hemifumarate following intravenous administration of aliskiren hemifumarate at 10 mg.Kg-1 level in rat; assay type: ADME, organism-based; settings: Albino HAN:WIST, plasma
[24] = Tmax of aliskiren hemifumarate following 4 week oral dietary dosing of aliskiren hemifumarate at 1000 mg.Kg-1 level in female mouse; assay type: ADME, organism-based; settings: CB6F1-TGrasH2, mouse, in vivo
[25] = Cmax of aliskiren hemifumarate following 4 week oral dietary dosing of aliskiren hemifumarate at 2000 mg.Kg-1 level in male mouse; assay type: ADME, organism-based; settings: CB6F1-TGrasH2, mouse, in vivo
[26] = Cmax of aliskiren hemifumarate following 4 week oral dietary dosing of aliskiren hemifumarate at 2000 mg.Kg-1 level in female mouse; assay type: ADME, organism-based; settings: CB6F1-TGrasH2, mouse, in vivo
[27] = AUC (0-24h) of aliskiren hemifumarate following 4 week oral dietary dosing of aliskiren hemifumarate at 2000 mg.Kg-1 level in female mouse; assay type: ADME, organism-based; settings: CB6F1-TGrasH2, mouse, plasma
[28] = AUC (0-24h)/dose of aliskiren hemifumarate following 4 week oral dietary dosing of aliskiren hemifumarate at 1500 mg.Kg-1 level in male mouse; assay type: ADME, organism-based, CB6F1-TGrasH2, Plasma; settings: in vivo
[29] = Tmax of aliskiren hemifumarate following 2 week oral dosing of aliskiren hemifumarate at 10 mg.Kg-1 level studied on day 1 in female Callithrix jacchus; assay type: ADME, organism-based; settings: marmoset, plasma
[30] = AUCspec of aliskiren hemifumarate following 2 week oral dosing of aliskiren hemifumarate at 10 mg.Kg-1 level studied on day 1 in female Callithrix jacchus; assay type: ADME, organism-based, Plasma; settings: marmoset, in vivo, 336 h
[31] = AUCspec of aliskiren hemifumarate following 2 week oral dosing of aliskiren hemifumarate at 50 mg.Kg-1 level studied on day 1 in female Callithrix jacchus; assay type: ADME, organism-based, Plasma; settings: marmoset, in vivo, 336 h
[32] = AUCspec of aliskiren hemifumarate following 2 week oral dosing of aliskiren hemifumarate at 50 mg.Kg-1 level studied on day 14 in female Callithrix jacchus; assay type: ADME, organism-based, Plasma; settings: marmoset, in vivo, 336 h

Work on `COCCCOc1cc(C[C@@H](C[C@H](N)[C@@H](O)C[C@H](C(=O)NCC([14CH3])([14CH3])C(N)=O)C(C)C)C(C)C)ccc1OC.O=C(O)/C=C/C(=O)O` yielded a Radiolabel recovery [1] of 0.57%, a Radiolabel recovery [2] of 0.6% and a Radiolabel recovery [3] of 0.61%. For the same compound, the Radiolabel recovery [4] was 0.576%, the AUC [5] was 18.3 µM·h and the Tmax [6] was 1 h. It also gave a Radiolabel recovery [7] of 69.96%, a Radiolabel recovery [8] of 1.82% and a Radiolabel recovery [9] of 0.16%. For the same compound, the Radiolabel recovery [10] was 91.1%, the Radiolabel recovery [11] was 5.05% and the “Tmax(1)” value [12] was 2 h. The Cmax [13] was 1.09 µM and the Radiolabel recovery [14] was “OUTCOME = Detected”.

In the case of `COCCCOc1cc(C[C@@H](C[C@H](N)[C@@H](O)C[C@H](C(=O)NCC(C)(C)C(N)=O)C(C)C)C(C)C)ccc1OC`, the inhibition at 200 µM (CYP1A2) is reported as 15.2% and the inhibition at 200 µM (CYP2C9) is reported as 32.1%.

`COCCCOc1cc(C[C@@H](C[C@H](N)[C@@H](O)C[C@H](C(=O)NCC(C)(C)C(N)=O)C(C)C)C(C)C)ccc1OC.COCCCOc1cc(C[C@@H](C[C@H](N)[C@@H](O)C[C@H](C(=O)NCC(C)(C)C(N)=O)C(C)C)C(C)C)ccc1OC.O=C(O)/C=C/C(=O)O` [ALISKIREN FUMARATE] gave a Cmax [15] of 335 ng/mL, a Tmax [16] of 4.1 h and a Cmax [17] of 29.2 µM. For the same compound, the “Plasma magnesium_CHANGE_BY” value [18] was 130%, the Cmax [19] was 3960 ng/mL and the AUC normalised [20] was 0.03 (umol.h/L)/(mg/kg). The Change in spermatogenesis [21] was “OUTCOME = No abnormalities. No animals died during the study”, the Change in spermatogenesis [22] was “OUTCOME = No abnormalities. No animals died during the study” and the half-life [23] was 23.1 h. For the same compound, the Tmax [24] was 3 h, the Cmax [25] was 439 ng/mL and the Cmax [26] was 1230 ng/mL. The AUC(0-t) at 24 h [27] was 11800 ng·h/mL, the AUC normalised [28] was 2.76 ((ng/mL).hours)/(mg/kg/day) and the Tmax [29] was 1 h. For the same compound, the AUC normalised [30] was 2.13 ((ug.h.ml-1)/(mg/kg), the AUC normalised [31] was 1.12 ((ug.h.ml-1)/(mg/kg) and the AUC normalised [32] was 2.18 ((ug.h.ml-1)/(mg/kg).
